Source: publication PMC11997890, “In Vivo and In Vitro Pharmacokinetic Studies of a Dual Topoisomerase I/II Inhibitor” (ACS Pharmacology & Translational Science, 2025)
Values belong to the compound of their own block, whether it stands above or below them.

Key:
P-GP (ABCB1) = molecular target: T1, P-GP (ABCB1) (Homo sapiens, UniProt P08183); assay: Transporter inhibition, calcein-AM accumulation in MDCK cells (P-GP overexpression); type: cell-based; conditions: intracellular accumulation of calcein-AM
T1 construct: expressed in transfected cells; host or cells: MDCK (Madin Darby canine kidney)
Protocol: The inhibitory characteristics of P8-D6 on the classic efflux transporters P-GP and BCRP (ABCG2) were evaluated (Figure ).
A potential interaction of P8-D6 with the export protein P-GP (ABCB1) was evaluated in MDCK (P-GP overexpression) and MDCKII (BCRP overexpression) cells. P-GP interaction was determined by the measurement of calcein accumulation within the cells according to Bauer et al. Calcein-acetoxymethylester (calcein-AM) is a nonfluorescent, lipophilic and therefore highly cell-permeable ester. Once inside the cell, the ester bonds are rapidly cleaved by nonspecific esterases, generating highly fluorescent calcein, which is trapped inside the cell because of its hydrophilic nature. Because calcein-AM is a substrate for P-GP, inhibition of the transporter decreases efflux, which results in a higher intracellular fluorescence signal. […] Calcein-AM (MoBiTec, Göttingen, FRG) was added to a final concentration of 1 μM and incubated for 30 min at 37 °C. Afterward, the cells were immediately washed 3 times with ice-cold Krebs–Ringer buffer and lysed with 1% Triton X-100. […] Each determination was repeated 3 times in 2 experiments to ensure reproducibility. All fluorescence values were corrected by subtracting the background fluorescence.

γ-globulins = assay: Binding to isolated plasma protein by ultrafiltration; set-up: species or system human
Protocol: To examine the effect of the P8-D6 plasma protein binding on the in vivo bioavailability, human and rat plasma was spiked in vitro and incubated with P8-D6. By using ultrafiltration to separate free P8-D6 from the protein-bound fraction, a plasma protein binding of 99% (Figure A) was estimated. However, neither human α-1-microglobulin (3.06%) nor human serum albumin (0.91%) is responsible for binding. According to initial findings, γ-globulins (94.59%), human transferrin (90.43%), LDL (87.99%), human α2-HS glycoprotein (85.29%), and human fibrinogen (78.89%) lead to binding of P8-D6.
To examine the extent of plasma protein binding, 150 μL of blank samples of human plasma (1 mM) and rat plasma (1 mM), human albumin (1 mM, #A1653, Merck KGaA, Darmstadt); human α1-acid glycoprotein (1 mM; #G9885, Merck KGaA, Darmstadt); human α2-HS-glycoprotein (0.1 mM; #G0516, Merck KGaA, Darmstadt); human transferrin (0.2 mM; #T8158, Merck KGaA, Darmstadt); human fibrinogen (0.2 mM; #F3879, Merck KGaA, Darmstadt); LDL (0.2 mM; […]); and human γ-globulin (1 mM; #G4386, Merck KGaA, Darmstadt) were spiked with P8-D6 in the same final concentration as the protein and incubated in a shaking water bath at 37 °C for 120 min. Afterward, the unbound fraction of P8-D6 was separated by ultrafiltration (Vivaspin 500 10 000 MWCO filter). The sample preparation was performed according to plasma samples. […]

[1] = tested on: kidney tissue (γH2AX, c-PARP, OGG1); assay: In vivo tolerability and immunohistochemistry of tissue damage markers; set-up: species or system Sprague–Dawley rats
Excerpt: Organs were immunostained with antibodies to detect reactive oxygen species, DNA damage, and caspase levels, not showing abnormalities in the liver, lungs, spleen, kidneys, and colon (Figure E).
OGG1, a marker for oxidative DNA damage produced by reactive oxygen species, was expressed weakly in the background and cytoplasm of the negative control samples of kidney tissue. […] No specific immunohistochemical reactions could be observed for the other organs.
Tissues were fixed with 4% formaldehyde and dehydrated with an ethanol series before embedding in paraffin. Tissue sections were cut using a microtome; the tissue sections were deparaffinized and rehydrated in water. Hematoxylin and eosin (H and E) staining was carried out on a Tissue Tek Prisma Plus autostainer (SAKURA). For immunohistochemistry, sections were stained with antibodies directed against γH2AX (Cell Signaling #9718, dilution 1:200, DNA-damage), OGG1 (Proteintech #15125-1-AP, dilution 1:200, DNA-damage), and c-PARP (Abcam #ab32064, dilution 1:200, DNA-damage). […] The immunoreaction was visualized with the Bond Polymer Refine Detection Kit (DS 9800; brown labeling; Novocastra; Leica Biosystems GmbH), resulting in a brown color and counterstained with hematoxylin. The IHC stainings were carried out on the autostainer BOND RX system (Leica Biosystems GmbH). The stained tissue sections were digitalized with a NanoZoomer S60 Digital slide scanner (Hamamatsu) at a 40× magnification objective and analyzed by board-certified pathologists. The samples from three mice were analyzed.

CYP2C9 = molecular target: T2, CYP2C9 (Homo sapiens, UniProt P11712); assay: Conversion of P8-D6 by recombinant CYP2C9; type: in vitro ADME
T2 construct: host or cells: human liver microsomes (one value) / recombinant CYP enzyme (other value)
Protocol: P8-D6 N-oxide was the most common metabolite for all incubations with subcellular fractions from the homogenized tissue. According to the detected MS-MS fragments (supplied as Supporting Information Chapter 2), it resulted from N-oxygenation of the nitrogen at the side chain since the unmodified fragment of P8-DO (m/z = 414.1) was detected. Furthermore, the detected fragment at m/z = 440.1 is most likely a carbocation at the remaining ethyl chain after splitting off the dimethylamine N-oxide further strengthening the theory of selectively forming this specific N-oxide. In addition, no relevant chemical shifts in the aromatic range of the ^1H NMR compared to P8-D6 and mono were observed (supplied as Supporting Information Chapter 2). Thus, no chemical modifications can have occurred on the aromatic rings, and all changes must therefore affect the side chain. […] To determine which enzymes were responsible for the conversion, seven recombinant CYP 450 isoenzymes recommended by the FDA’s “Guidance for Industry” and human FMO3 were used.
The third and final in vitro metabolite, P8-DO, is a direct synthesis precursor of P8-D6 and results from oxidative O-desalkylation of the complete side chain (Figure ). […] The formation of P8-DO is mainly catalyzed by CYP2C9 (0.10%) and 2D6 (0.09%) (Figure E). […]

T1 sequence (P08183 whole entry, species assumed): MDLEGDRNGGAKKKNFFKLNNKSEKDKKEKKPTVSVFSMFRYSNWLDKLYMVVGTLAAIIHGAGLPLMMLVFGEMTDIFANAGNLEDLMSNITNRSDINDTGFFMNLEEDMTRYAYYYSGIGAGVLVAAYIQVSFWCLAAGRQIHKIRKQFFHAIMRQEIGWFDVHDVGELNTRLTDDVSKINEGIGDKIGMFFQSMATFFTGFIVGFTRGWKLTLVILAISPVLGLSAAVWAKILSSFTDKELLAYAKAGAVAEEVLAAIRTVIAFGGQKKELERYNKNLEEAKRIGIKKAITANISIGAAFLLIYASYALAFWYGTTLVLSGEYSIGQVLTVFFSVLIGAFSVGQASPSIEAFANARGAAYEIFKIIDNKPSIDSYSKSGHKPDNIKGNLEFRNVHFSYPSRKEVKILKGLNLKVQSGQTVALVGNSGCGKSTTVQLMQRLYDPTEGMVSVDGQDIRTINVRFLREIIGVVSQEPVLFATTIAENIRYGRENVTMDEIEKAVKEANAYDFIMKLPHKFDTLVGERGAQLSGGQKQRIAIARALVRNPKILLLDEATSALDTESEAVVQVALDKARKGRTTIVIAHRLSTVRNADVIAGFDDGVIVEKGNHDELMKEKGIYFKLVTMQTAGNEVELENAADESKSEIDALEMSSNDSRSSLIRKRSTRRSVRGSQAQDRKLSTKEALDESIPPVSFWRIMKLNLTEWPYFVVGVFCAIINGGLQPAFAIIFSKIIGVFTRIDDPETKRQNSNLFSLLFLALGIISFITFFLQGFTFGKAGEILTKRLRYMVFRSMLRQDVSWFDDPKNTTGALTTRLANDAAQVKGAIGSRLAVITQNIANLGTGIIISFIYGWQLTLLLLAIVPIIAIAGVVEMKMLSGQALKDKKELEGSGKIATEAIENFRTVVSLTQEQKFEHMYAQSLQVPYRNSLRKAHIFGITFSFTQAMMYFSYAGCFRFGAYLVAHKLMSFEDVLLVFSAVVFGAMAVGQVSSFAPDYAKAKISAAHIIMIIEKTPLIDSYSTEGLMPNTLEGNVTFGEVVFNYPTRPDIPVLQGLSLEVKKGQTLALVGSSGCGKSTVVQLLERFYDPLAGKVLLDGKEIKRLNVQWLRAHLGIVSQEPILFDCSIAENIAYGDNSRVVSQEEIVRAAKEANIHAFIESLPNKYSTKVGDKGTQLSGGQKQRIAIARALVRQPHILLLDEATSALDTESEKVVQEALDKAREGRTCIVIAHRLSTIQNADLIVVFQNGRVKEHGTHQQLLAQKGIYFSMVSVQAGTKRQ
T2 sequence (P11712 whole entry): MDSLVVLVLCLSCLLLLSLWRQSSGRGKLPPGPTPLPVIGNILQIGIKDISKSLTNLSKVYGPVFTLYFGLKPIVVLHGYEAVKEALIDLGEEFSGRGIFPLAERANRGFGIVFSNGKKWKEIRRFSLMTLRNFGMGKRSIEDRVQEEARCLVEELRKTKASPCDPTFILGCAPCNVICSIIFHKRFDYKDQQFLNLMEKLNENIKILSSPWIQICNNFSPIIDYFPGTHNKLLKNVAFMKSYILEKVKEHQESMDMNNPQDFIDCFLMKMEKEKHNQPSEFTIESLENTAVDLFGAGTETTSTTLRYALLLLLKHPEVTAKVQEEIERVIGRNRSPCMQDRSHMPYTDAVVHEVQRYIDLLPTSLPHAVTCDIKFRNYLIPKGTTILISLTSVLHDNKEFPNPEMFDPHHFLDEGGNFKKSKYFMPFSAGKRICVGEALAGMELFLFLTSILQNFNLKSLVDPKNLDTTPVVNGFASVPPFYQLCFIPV

SMILES: COc1cc(-c2cc3ccncc3c3nc(OCCN(C)C)c4cnccc4c23)cc(OC)c1OC [P8-D6, 6-(N,N-dimethyl-2-aminoethoxy)-11-(3,4,5-trimethoxyphenyl)-pyrido[3,4-c][1,9]-phenanthroline]
IC50 (P-GP (ABCB1)): 20.6 µM
binding of P8-D6 (γ-globulins): 94.59%
OGG1 immunohistochemistry (oxidative DNA damage) ([1]; kidney tissue): did not significantly differ from the negative control
γH2AX immunohistochemistry (marker for DNA damage) ([1]; kidney tissue): diffuse positivity
signs of toxicity ([1]; p.o. 50 mg/kg BW and i.v. 10 mg/kg BW): no signs of toxicity
C-PARP immunohistochemistry (marker of apoptosis) ([1]; vs positive and negative control): no significant difference

formation of metabolite from P8-D6 (CYP2C9): 0.10%
SMILES: COc1cc(-c2cc3ccncc3c3[nH]c(=O)c4cnccc4c23)cc(OC)c1OC [P8-DO]
